In the supplement of paper PMC10307832:

What was measured:
Experiment in all cases: relative viability (nuclei count vs DMSO), 5 days (fraction); higher = more cells survive
AZD5582 + OSI-027 = compound: C[C@@H](C(=O)N[C@@H](C1CCCCC1)C(=O)N2CCC[C@H]2C(=O)N[C@@H]3[C@@H](CC4=CC=CC=C34)OCC#CC#CCO[C@@H]5CC6=CC=CC=C6[C@@H]5NC(=O)[C@@H]7CCCN7C(=O)[C@H](C8CCCCC8)NC(=O)[C@H](C)NC)NC [AZD5582] + COc1cccc2cc(-c3nc([C@H]4CC[C@H](C(=O)O)CC4)n4ncnc(N)c34)[nH]c12 [OSI-027] (partner 0.5 µM)
Method in brief: (§1)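 Lung cancer cell lines, seeded in 1536-well plates, were treated the following day by pin tool with a single drug or with five library-drug doses (not always all listed) in √10 steps on top of a fixed anchor-drug dose. Cells were fixed and nuclei stained in one step after 5 days, and nuclei were counted. Relative viability is the nuclei count for treated wells divided by that for vehicle wells, reported as medians of duplicate plates.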

[1] = compound: Cn1nnc2c(C(N)=O)ncn2c1=O [Temozolomide] + Nc1nc2[nH]cc(CCc3ccc(C(=O)N[C@@H](CCC(=O)O)C(=O)O)cc3)c2c(=O)[nH]1 [Pemetrexed] (partner 0.2 µM)
Method in brief: as §1

AZD5582 = compound: C[C@@H](C(=O)N[C@@H](C1CCCCC1)C(=O)N2CCC[C@H]2C(=O)N[C@@H]3[C@@H](CC4=CC=CC=C34)OCC#CC#CCO[C@@H]5CC6=CC=CC=C6[C@@H]5NC(=O)[C@@H]7CCCN7C(=O)[C@H](C8CCCCC8)NC(=O)[C@H](C)NC)NC [AZD5582]
Method in brief: (§2)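 Five library-drug doses, separated by factors of √10, were pinned into 1536-well plates holding lung cancer cell lines after an overnight stay at 37 °C. Cells were fixed, permeabilised and Hoechst-stained in one step after 5 days without medium change, then imaged at 4×. Viability compares treated-well with vehicle-well nuclei, counted in MetaXpress, as a median across plates. Passing plates had control CV below 25% and at least one doubling.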

Temozolomide = compound: Cn1nnc2c(C(N)=O)ncn2c1=O [Temozolomide]
Method in brief: as §2

| Cell Line | relative viability (AZD5582 + OSI-027; first compound 0.001581 µM) | relative viability (AZD5582 + OSI-027; first compound 0.005 µM) | relative viability (AZD5582 + OSI-027; first compound 0.01581 µM) | relative viability (AZD5582 + OSI-027; first compound 0.05 µM) | relative viability ([1]; first compound 0.2 µM) | relative viability ([1]; first compound 0.6325 µM) | relative viability ([1]; first compound 2 µM) | relative viability ([1]; first compound 6.325 µM) | relative viability ([1]; first compound 20 µM) | relative viability (AZD5582; 0.001581 µM) | relative viability (AZD5582; 0.005 µM) | relative viability (AZD5582; 0.01581 µM) | relative viability (AZD5582; 0.05 µM) | relative viability (Temozolomide; 0.2 µM) | relative viability (Temozolomide; 0.6325 µM) | relative viability (Temozolomide; 2 µM) | relative viability (Temozolomide; 6.325 µM) | relative viability (Temozolomide; 20 µM) |
| --- | --- | --- | --- | --- | --- | --- | --- | --- | --- | --- | --- | --- | --- | --- | --- | --- | --- | --- |
| NCI-H460 | 0.614 | 0.774 | 0.642 | 0.779 | 0.0579 | 0.0556 | 0.0638 | 0.0585 | 0.0573 | 0.958 | 0.991 | 0.965 | 1.1 | 1.02 | 0.998 | 1 | 1.03 | 1.1 |
| NCI-H520 | 0.261 | 0.21 | 0.224 | 0.269 | 0.723 | 0.595 | 0.711 | 0.631 | 0.74 | 0.955 | 1.05 | 0.947 | 1.1 | 1.06 | 0.999 | 1.13 | 0.981 | 0.97 |
| NCI-H522 | 0.671 | 0.711 | 0.861 | 0.595 | 0.765 | 0.972 | 1.27 | 0.984 | 0.804 | 0.841 | 1 | 0.957 | 0.795 | 0.842 | 0.985 | 1.02 | 0.998 | 0.915 |
| NCI-H596 | – | – | 0.614 | 0.334 | 0.515 | 0.535 | 0.621 | 0.465 | 0.574 | 0.84 | – | 0.999 | 0.358 | 0.932 | 0.953 | 1.01 | 0.925 | 0.959 |
| NCI-H647 | 0.599 | 0.704 | 0.463 | 0.75 | 0.169 | 0.17 | 0.2 | 0.146 | 0.122 | 0.904 | 0.971 | 0.865 | 0.957 | 1 | 1.01 | 0.906 | 0.684 | 0.265 |
| NCI-H650 | 0.431 | 0.509 | 0.364 | 0.32 | 0.934 | 0.902 | 0.963 | 0.96 | 0.961 | 0.842 | 0.982 | 0.542 | 0.564 | 1.01 | 0.975 | 1.02 | 0.974 | 0.913 |
| NCI-H661 | 0.6 | 0.725 | 0.722 | 0.676 | 0.92 | 0.882 | 1.01 | 0.858 | 0.759 | 0.984 | 1 | 0.984 | 1.07 | 0.993 | 0.935 | 1.04 | 0.947 | 0.843 |
| NCI-H838 | 0.339 | 0.423 | – | 0.449 | 0.247 | 0.256 | 0.254 | 0.252 | 0.233 | 0.895 | 1.09 | 0.785 | 0.975 | 0.948 | 1.02 | 1.02 | 0.928 | 0.986 |
| NCI-H1355 | 0.355 | 0.468 | 0.288 | 0.322 | 1.01 | 1.03 | 0.963 | 1 | 0.998 | 0.902 | 1.01 | 0.771 | 0.823 | 1.01 | 0.985 | 1.06 | 0.947 | 0.982 |
| NCI-H1395 | 0.7 | 0.734 | 0.583 | 0.767 | 0.931 | 0.983 | 1.03 | 0.769 | 0.754 | 0.866 | 1 | – | 0.988 | 1 | 0.96 | 0.906 | 0.745 | 0.867 |
| NCI-H1437 | 0.787 | 0.893 | 0.77 | 0.94 | 0.31 | 0.317 | 0.376 | 0.316 | 0.277 | 0.915 | 1 | 0.979 | 0.983 | 0.998 | 1.01 | 0.997 | 1.04 | 1.02 |
| NCI-H1563 | 0.688 | 0.709 | 0.731 | 0.679 | 0.71 | 0.798 | 0.744 | 0.739 | 0.747 | 0.957 | 0.936 | 0.836 | 1.07 | 0.903 | 0.937 | 0.999 | 0.99 | 0.993 |
| NCI-H1648 | – | 0.266 | 0.228 | 0.301 | – | 0.614 | 0.554 | 0.696 | 0.82 | 0.607 | 0.894 | 0.554 | 0.824 | – | 0.889 | 0.903 | 0.746 | 0.893 |
| NCI-H1650 | 0.599 | 0.859 | 0.547 | 0.564 | 0.335 | 0.349 | 0.443 | 0.355 | 0.459 | 0.87 | 1.05 | 0.899 | 0.759 | 0.955 | 0.938 | 0.933 | 0.952 | 0.773 |
| NCI-H1651 | 0.667 | 0.813 | – | 0.983 | 0.58 | 0.588 | 0.591 | 0.6 | 0.617 | 0.932 | 1.01 | 0.952 | 1.13 | 0.983 | 0.997 | 0.984 | 0.997 | 0.993 |
| NCI-H1666 | 0.65 | 0.696 | 0.808 | 0.874 | 0.736 | 0.895 | 0.963 | 0.877 | 0.767 | 0.886 | 0.953 | 0.971 | 0.94 | 0.92 | 0.994 | 0.906 | 0.751 | 0.76 |
| NCI-H1734 | 0.691 | 0.704 | 0.595 | 0.594 | 0.398 | 0.422 | 0.431 | 0.394 | 0.386 | 0.968 | 1.11 | 1.03 | 1.23 | 1.12 | 1.05 | 1.06 | 0.932 | 0.976 |
